Source: US20220106301A1, “ACETAMIDO-PHENYLBENZAMIDE DERIVATIVES AND METHODS OF USING THE SAME” (Athenex, Inc., priority 2020, published 2022)

Molecular target: CYP3A4 (Homo sapiens, UniProt P08684)
Test: Determination of CYP3A4 inhibitory activity (human liver microsome, Luciferin-IPA)
Settings: CYP3A4 IC50 (nM), 37° C. 11 minutes
Method: The standard final Compound concentrations were 37, 111, 333, 1000, and 3000 nM. 12.5 μL of the Compound dilutions were transferred to a white 96-well plate. […] 25 μL of the buffer was added to each well. The plates were incubated at 37° C. for 11 minutes. 50 μL of luciferin detection reagent (Promega V9002) was added and the plates were incubated at room temperature for 5 minutes. The plate was read with a luminometer.
The dose-response curve and IC50 were obtained by fitting data to nonlinear regression model using GraphPad Prism software (v6.0).

Sequence of CYP3A4 (P08684 whole entry): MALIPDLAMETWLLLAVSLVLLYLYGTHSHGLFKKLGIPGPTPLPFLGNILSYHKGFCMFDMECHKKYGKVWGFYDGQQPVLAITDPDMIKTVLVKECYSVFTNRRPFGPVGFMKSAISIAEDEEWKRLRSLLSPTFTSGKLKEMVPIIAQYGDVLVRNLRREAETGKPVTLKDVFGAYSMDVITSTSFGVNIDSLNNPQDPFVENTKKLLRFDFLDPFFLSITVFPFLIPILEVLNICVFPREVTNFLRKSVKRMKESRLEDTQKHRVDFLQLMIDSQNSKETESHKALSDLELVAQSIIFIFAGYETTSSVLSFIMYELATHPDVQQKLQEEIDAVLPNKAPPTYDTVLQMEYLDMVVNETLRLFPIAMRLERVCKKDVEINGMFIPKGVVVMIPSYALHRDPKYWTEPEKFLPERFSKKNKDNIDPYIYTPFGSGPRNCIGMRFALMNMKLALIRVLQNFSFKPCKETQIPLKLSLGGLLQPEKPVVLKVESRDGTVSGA

SMILES	IC50 [nM]
COc1cc(NC(=O)c2cc(=O)c3ccccc3o2)c(C(=O)Nc2ccc(CCN(Cc3cncc(OCCN)c3)Cc3ccc4c(cnn4C)c3)cc2)cc1OC [Compound 246]	> 1000
COc1cc(NC(=O)c2cc(=O)c3ccccc3o2)c(C(=O)Nc2ccc(CCN(Cc3ccc4c(cnn4C)c3)Cc3cnccc3O)cc2)cc1OC [Compound 228]	> 1000
COc1cc(NC(=O)c2cc(=O)c3ccccc3o2)c(C(=O)Nc2ccc(CCN(C)C(=O)c3cccc(-n4ccnc4)c3)cc2)cc1OC [Compound 122]	500 to 1000
CCOc1cc(C(=O)Nc2ccc(CCN(C)Cc3cccc(-n4cnc(C)c4)c3)cc2)c(NC(=O)c2cc(=O)c3ccccc3o2)cc1OC [Compound 110]	500 to 1000
CCN(CCc1ccc(NC(=O)c2cc(OC)c(OC)cc2NC(=O)c2cc(=O)c3ccccc3o2)cc1)Cc1ccc2c(c1)ncn2C [Compound 109]	> 1000
COc1cc(NC(=O)c2cc(=O)c3cc(C)ccc3o2)c(C(=O)Nc2ccc(CCN(Cc3cncc(O)c3)Cc3ccc4c(cnn4C)c3)cc2)cc1OC [Compound 59]	100 to 250
COc1cc(NC(=O)c2cc(=O)c3cc(C)ccc3o2)c(C(=O)Nc2ccc(CCN(Cc3ccc4c(cnn4C)c3)Cc3ccc4c(c3)nnn4C)cc2)cc1OC [Compound 251]	> 1000
COc1cc(NC(=O)C2CC(=O)c3ccccc3O2)c(C(=O)Nc2ccc(CCN(C)Cc3ccc(-c4cccnc4)cc3)cc2)cc1OC (stereo not shown) [Compound 88]	500 to 1000
COc1cc(NC(=O)c2cc(=O)c3ccccc3o2)c(C(=O)Nc2ccc(CCN(Cc3ccc4c(cnn4C)c3)Cc3cccnc3N)cc2)cc1OC [Compound 226]	> 1000
COc1cc(NC(=O)c2cc(=O)c3ccccc3o2)c(C(=O)Nc2ccc(CCN(C)Cc3ccc(-c4nn[nH]n4)cc3)cc2)cc1OC [Compound 148]	> 1000
COc1cc2c(cc1OC)CN(CCc1ccc(NC(=O)c3ccc(C(=O)OCc4cccnc4)cc3NC(=O)c3cc(=O)c4ccccc4o3)cc1)CC2 [Compound 80]	500 to 1000
COc1cc(NC(=O)c2cc(=O)c(O)co2)c(C(=O)Nc2ccc(CCN(C)Cc3ccc(-n4ccnc4)cc3)cc2)cc1OC [Compound 128]	500 to 1000
COc1ccc(CN(CCc2ccc(NC(=O)c3cc(OC)c(OC)cc3NC(=O)c3cc(=O)c4ccccc4o3)cc2)Cc2ccc(-n3ccnc3)cc2)cc1OC [Compound 28]	100 to 250
COc1cc(NC(=O)c2cc(=O)c3ccccc3o2)c(C(=O)Nc2ccc(CCN(Cc3ccc4c(cnn4C)c3)Cc3ccc4c(c3)c(C)nn4C)cc2)cc1OC [Compound 181]	> 1000
COC(=O)c1ccc(CN(CCc2ccc(NC(=O)c3cc(OC)c(OC)cc3NC(=O)c3cc(=O)c4ccccc4o3)cc2)Cc2cccc(-n3ccnc3)c2)cc1 [Compound 218]	100 to 250
COc1cc(NC(=O)c2cc(=O)c3ccccc3o2)c(C(=O)Nc2ccc(CCN(C)Cc3ccc(-n4cncn4)cc3)cc2)cc1OC [Compound 19]	250 to 500
COc1cc(NC(=O)c2cc(=O)c3ccccc3o2)c(C(=O)Nc2ccc(CCNCc3cccc(-n4ccnc4)c3)cc2)cc1OC [Compound 125]	100 to 250
COCCOc1cncc(CN(CCc2ccc(NC(=O)c3cc(OC)c(OC)cc3NC(=O)c3cc(=O)c4cc(C)ccc4o3)cc2)Cc2ccc3c(c2)c(C)nn3C)c1 [Compound 68]	100 to 250
COc1cc(NC(=O)c2cc(=O)c3ccccc3o2)c(C(=O)Nc2ccc(CCN(C)C(=O)CCc3ccncc3)cc2)cc1OC [Compound 120]	100 to 250
C#Cc1ccc(CN(C)CCc2ccc(NC(=O)c3cc(OC)c(OC)cc3NC(=O)c3cc(=O)c4ccccc4o3)cc2)cc1 [Compound 115]	> 1000
COc1cc(NC(=O)c2cnc3ccccc3n2)c(C(=O)Nc2ccc(CCN(Cc3ccc4c(cnn4C)c3)Cc3ccc(C)c4ncccc34)cc2)cc1OC [Compound 173]	> 1000
COc1cc(NC(=O)c2cc(=O)c3ccccc3o2)c(C(=O)Nc2ccc(CCN(CCN3CCOCC3)Cc3ccc4c(cnn4C)c3)cc2)cc1OC [Compound 149]	> 1000
COc1cc(NC(=O)c2cc(=O)c3ccccc3o2)c(C(=O)Nc2ccc(CCN(C)Cc3ccc4c(c3)OCO4)cc2)cc1OC [Compound 138]	> 1000
CCn1ncc2cc(CN(CCc3ccc(NC(=O)c4cc(OC)c(OC)cc4NC(=O)c4cc(=O)c5ccccc5o4)cc3)Cc3cccnc3)ccc21 [Compound 248]	250 to 500
COc1cc(NC(=O)c2cc(=O)c3cc(C)ccc3o2)c(C(=O)Nc2ccc(CCN(Cc3cncc(C(C)C)c3)Cc3ccc4c(cnn4C)c3)cc2)cc1OC [Compound 76]	> 1000
COCCOc1cncc(CN(CCc2ccc(NC(=O)c3cc(OC)c(OC)cc3NC(=O)c3cnc4ccccc4n3)cc2)Cc2ccc3c(cnn3C)c2)c1 [Compound 62]	500 to 1000
COc1ccc(CN(CCc2ccc(NC(=O)c3ccc(C(=O)OCc4cccnc4)cc3NC(=O)c3cc(=O)c4ccccc4o3)cc2)Cc2ccc(OC)c(OC)c2)cc1OC [Compound 265]	> 1000
COc1cc(NC(=O)c2cnc3ccccc3c2)c(C(=O)Nc2ccc(CCN(C)Cc3ccc(-n4ccnc4)cc3)cc2)cc1OC [Compound 2]	100 to 250

SMILES	IC50 [nM]
COc1cncc(CN(CCc2ccc(NC(=O)c3ccc(C(=O)NS(=O)(=O)N(C)C)cc3NC(=O)c3cc(=O)c4ccccc4o3)cc2)Cc2ccc3c(cnn3C)c2)c1 [Compound 278]	250 to 500
COc1cncc(CN(CCc2ccc(NC(=O)c3cc(OC)c(OC)cc3NC(=O)c3cc(=O)c4ccccc4o3)cc2)Cc2ccc3c(cnn3C(C)=O)c2)c1 [Compound 252]	250 to 500
COc1cc(NC(=O)c2cc(=O)c3ccccc3o2)c(C(=O)Nc2ccc(CCN(Cc3ccc(-c4ccncc4)cc3)Cc3ccc4c(cnn4C)c3)cc2)cc1OC [Compound 188]	> 1000
COc1cc(NC(=O)c2cc(=O)c3ccccc3o2)c(C(=O)Nc2ccc(CCN(C)Cc3ccc(-c4ncco4)cc3)cc2)cc1OC [Compound 114]	> 1000
COc1cc(NC(=O)c2cc(=O)c3ccccc3o2)c(C(=O)Nc2ccc(CCN(Cc3ccc(-n4ccnc4)cc3)Cc3ccc4c(cnn4C)c3)cc2)cc1OC [Compound 26]	250 to 500
COc1cc(NC(=O)c2cc(=O)c3ccccc3o2)c(C(=O)Nc2ccc(CCN3CCc4cnccc4C3)cc2)cc1OC [Compound 83]	< 100
COc1cc(NC(=O)c2cc(=O)c3ccccc3o2)c(C(=O)Nc2ccc(CCN(Cc3ccc4c(cnn4C)c3)Cc3ccncc3F)cc2)cc1OC [Compound 47]	250 to 500
COc1cc(NC(=O)c2cc(=O)c3ccccc3o2)c(C(=O)Nc2ccc(CCN(Cc3cccnc3)Cc3cnc4cnc(Br)cn34)cc2)cc1OC [Compound 54]	100 to 250
CCN1CNC=C1CN(CCc1ccc(NC(=O)c2cc(OC)c(OC)cc2NC(=O)c2cc(=O)c3ccccc3o2)cc1)Cc1ccc2cnn(C)c2c1 [Compound 37]	100 to 250
COc1cc(NC(=O)c2cc(=O)c3ccccc3o2)c(C(=O)Nc2ccc(CCN(Cc3cncc(C(C)C)c3)Cc3ccc4c(cnn4C)c3)cc2)cc1OC [Compound 253]	500 to 1000
CCOc1cncc(CN(CCc2ccc(NC(=O)c3cc(OC)c(OC)cc3NC(=O)c3cnc4ccccc4n3)cc2)Cc2ccc3c(cnn3C)c2)c1 [Compound 74]	250 to 500
COc1cc2c(cc1OC)CN(CCc1ccc(NC(=O)c3ccc(C(=O)OCCCn4ccnc4)cc3NC(=O)c3cc(=O)c4ccccc4o3)cc1)CC2 [Compound 262]	< 100
COc1cc(NC(=O)c2cc(=O)c3ccccc3o2)c(C(=O)Nc2ccc(CCN(C)Cc3cccc(-n4ccnc4)c3)cc2)cc1OC [Compound 3]	100 to 250
COc1cc(NC(=O)c2cc(=O)c3ccccc3o2)c(C(=O)Nc2ccc(CCN(C)Cc3ccc4c(ccn4C)c3)cc2)cc1OC [Compound 190]	> 1000
COc1cc(NC(=O)c2cc(=O)c3ccccc3o2)c(C(=O)Nc2ccc(CCN(Cc3cncn3C)Cc3cncn3C)cc2)cc1OC [Compound 18]	< 100
COc1cc(NC(=O)c2cc(=O)c3ccccc3o2)c(C(=O)Nc2ccc(CCN(Cc3cccc(-n4ccnc4)c3)Cc3ccc4c(cnn4C)c3)cc2)cc1OC [Compound 16]	250 to 500
COc1cc(NC(=O)c2cc(=O)c3ccccc3o2)c(C(=O)Nc2ccc(CCN(C)Cc3cccc(OC[C@@H]4CO[C@@](Cn5ccnc5)(c5ccc(Cl)cc5Cl)O4)c3)cc2)cc1OC [Compound 17]	< 100
COc1cc(NC(=O)c2cc(=O)c3ccccc3o2)c(C(=O)Nc2ccc(CCN(C)C(=O)CCc3cccnc3)cc2)cc1OC [Compound 119]	100 to 250
COc1cc(NC(=O)c2cnc3ccccc3n2)c(C(=O)Nc2ccc(CCN(Cc3cccc(-n4ccnc4)c3)Cc3ccc4c(cnn4C)c3)cc2)cc1OC [Compound 30]	500 to 1000
COc1cc(NC(=O)c2cc(=O)c3ccccc3o2)c(C(=O)Nc2ccc(CCN(Cc3cccnc3)Cc3cccc(-n4ccnc4)c3)cc2)cc1OC [Compound 216]	100 to 250
COc1cc(NC(=O)c2cc(=O)c3ccccc3o2)c(C(=O)Nc2ccc(CCN(Cc3ccc4cnn(C)c4c3)Cc3ncc[nH]3)cc2)cc1OC [Compound 36]	100 to 250
COc1cncc(CN(CCc2ccc(NC(=O)c3ccc(C(=O)O)cc3NC(=O)c3cc(=O)c4ccccc4o3)cc2)Cc2ccc3c(cnn3C)c2)c1 [Compound 259]	> 1000
CN(CCc1ccc(NC(=O)c2ccc(C(=O)OCc3cncs3)cc2NC(=O)c2cc(=O)c3ccccc3o2)cc1)Cc1ccc2c(cnn2C)c1 [Compound 85]	250 to 500
COC(=O)c1ccc(C(=O)Nc2ccc(CCN(C)Cc3ccc4c(cnn4C)c3)cc2)c(NC(=O)c2cnc3ccccc3c2)c1 [Compound 281]	> 1000
COc1cc(NC(=O)c2cc(=O)c3ccccc3o2)c(C(=O)Nc2ccc(CCN(Cc3cncs3)Cc3cccc4cnn(C)c34)cc2)cc1OC [Compound 200]	> 1000
CCN(CCc1ccc(NC(=O)c2cc(OC)c(OC)cc2NC(=O)c2cc(=O)c3ccccc3o2)cc1)Cc1ccc(OC)c(Cn2cncn2)c1 [Compound 24]	100 to 250
COc1cncc(CN(CCc2ccc(NC(=O)c3ccc(C(=O)OCCN4CCN(C)CC4)cc3NC(=O)c3cc(=O)c4ccccc4o3)cc2)Cc2ccc3c(cnn3C)c2)c1 [Compound 272]	250 to 500
